The text below walks through data of patent publication US20230060873A1, “COMPOUNDS AND METHODS FOR FORMING ION CHANNELS IN BIOLOGICAL MEMBRANES” (Washington University, priority 2021, published 2023).

Series [1] is described as follows: Planar lipid bilayer ion channel recordings. In kind it is biochemical. As to the method:
Experiments in planar lipid bilayers were performed via a Nanion Orbit-mini planar bilayer system. The planar membranes were formed by painting a 25 mg/mL solution of lipids in n-nonane over the four 50 μm apertures on the chip. The lipids used were asolectin from soybean (Sigma-Aldrich) or a 3:1 w/w mix of 1-palmitoyl-2-oleoyl-sn-glycero-3-phosphoethanolamine (POPE) and 1-palmitoyl-2-oleoyl-sn-glycero-3-phospho-(1′-rac-glycerol) (POPG) (Avanti Polar lipids). The solutions tested were KCl solution (150 mM KCl, 10 mM HEPES, pH adjusted to 7.4 with KOH), NaCl solution (150 mM NaCl, 10 mM HEPES, pH adjusted to 7.4 with NaOH), and a concentrated KCl solution (500 mM KCl, 10 mM HEPES, pH adjusted to 7.4 with KOH). When the appropriate membrane formed, the voltage was clamped at 100 mV or −100 mV, and a stock solution of gramicidin D (Sigma-Aldrich) in DMSO or LEC10 in TFE were added up to the desired concentration. The tested concentration of gramicidin D was 1 nM and 2, 10, 100 and 200 μM were tested for LEC10. Two different temperatures were tested for each condition: 25 and 37° C. The current was recorded over 10 min for the gramicidin test and up to 1 h for the LEC10 test. The data was analyzed with Clampfit 10.7 software (Axon Instruments).
FIGS. 41 and 42 show the lipid bilayer recordings. Current through the asolectin planar lipid bilayer clamped at 100 mV was recorded in the presence of […] (FIG. 41) and 2 μM LEC10 (FIG. 42). In both cases, the solution was 150 mM KCl, 10 mM HEPES, pH 7.4. […] This lack of unitary channel formation, or even a carrier-like increase of the conductance, precludes an ionophore-like mechanism of ion transport.

The subject of the next series is HEK293T cells. The class given is cell-based. The settings on record: human, 48 h. The protocol: The cyto-toxicity was determined by measuring the minimum inhibitory concentrations (MIC) for this series of dialkylated lariat ethers in the Gram-negative bacteria Escherichia coli, the Gram-positive bacteria Bacillus subtilis, and human embryonic kidney (HEK293T) cells.
On HEK293T cells. Human embryonic kidneys (HEK293T) cells (Thermofisher Scientific) were grown attached in cell culture dishes, detached by trypsin treatment and diluted in Dulbecco's Modified Eagle's Medium (DMEM) medium supplemented with phenol red indicator (Thermofisher scientific) until the density reached 100,000 viable cells/mL. An aliquot of 1 mL of this cell suspension was added to each well of a 24-wells culture plate. After 2 h, when the cells were already attached, a custom amount of 400, 100, 10 or 5 mM TFE solution of the dialkylated diaza(18-crown-6) ether compounds were added until final concentration of 400, 200, 100, 50, 20, 15, 10, 8, 6, 5, 4, 3, 2 or 1 μM were reached. The final TFE concentration never was over 0.1% v/v. Negative controls in the presence of TFE 0.1% v/v or the absence of any treatment were done for each plate. The plates were cultured at 37° C. The MIC was determined as the lowest compound concentration that killed all the cells after 48 h, as judged by trypan blue dye. […]

For a further series, the system named is B. subtilis cells. The series can be described thus: Lactate dehydrogenase release (resofurin fluorescence), MAcBCE/MAkBCE and controls. The class given is cell-based, Bacillus subtilis. The settings on record: 2 μM, 37° C, potassium lactate/NAD+ solution. As to the method: A 2 mL liquid culture of transformed B. subtilis cells was grown at 37° C. in LB media supplemented with […] kanamycin, until OD600=0.6. Cells were collected by centrifugation at 2000 rpm over 3 min. The bacterial pellet was washed twice in lactate/NAD^+ solution (95 mM potassium lactate, 10 mM nicotinamide adenine dinucleotide (NAD^+), 10 mM HEPES, pH adjusted to 7.4 with KOH). After the last centrifugation step, the bacteria were resuspended until OD600=1.0 in the lactate/NAD^+ solution, then diluted 100× in the same solution. The working fluorophore solution was a 1 mM of resazurin sodium salt (Alfa Cesar) in water. The experiment was started with 3 mL of lactate/NAD^+ solution in a quartz cuvette, then 3.1 μL of resazurin solution was added (timepoint t1, 50 sec) for a 1 μM final concentration, followed by the addition of 100 μL of the diluted B. subtilis suspension (timepoint t2, 100 sec). After 150 sec (timepoint t3, 250 sec), 10 μL of diaphorase (Worthinton Biochemical Corporation) 10 mg/mL solution was added. The final step involved the addition of 0.62 μL of a 10 mM stock solution of dialkylated diaza lariat ether (LEC10) in TFE (timepoint t4, 400 sec), for a final LEC10 concentration of 2 μM; or 3.1 μL of a 2 mM stock solution of valinomycin in DMSO, for a final valinomycin concentration of 2 μM; or 3.1 μL of a 20 mg/mL stock solution of lysozyme in lactate/NAD^+ solution, for a final lysozyme concentration of 20 μg/mL; or 3.1 μL of 10 mM stock solution of each MAcBCE or MAkBCE compounds in TFE, for final concentrations of 10 μM. Fluorescence intensity was recorded each second using a Horiba Fluoromax 4 spectrometer (λexcitation=550 nm; λemission=583 nm). […] To normalize, the fluorescence intensity was divided by the fluorescence level just before timepoint t4. […]
Experiments were repeated at least three times per condition. To normalize, the fluorescence intensity was divided by the fluorescence level just before timepoint t4.

≈ marks a conversion by molar mass, not a printed value.

`CCCCCCCCCCN1CCOCCOCCN(CCCCCCCCCC)CCOCCOCC1` [LEC10, Didecyl diaza(18-crown-6)]: the ion channel activity result is reported as “no ion channel activity was detected” in series [1] (2 μM, bilayer clamped at 100 mV, 150 mM KCl, 10 mM HEPES, pH 7.4); “no indication of ion channel activity” in series [1] (LEC10 10, 100 and 200 μM, KCl up to 500 mM or NaCl instead of KCl). Also, the “minimum inhibitory concentration (MIC)” value with HEK293T cells was found to be 6 µM (≈ 3.26 µg/mL). In addition, the “resofurin fluorescence (LDH release)” value in the series with B. subtilis cells is “increase in the resofurin fluorescence levels”.
